Measured values taken from US7759331B2, “Pyridine-containing macroheterococylic compounds as kinase inhibitors” (Janssen Pharmaceutica NV, priority 2006, dated 2010).
Values joined by “and” are separate entries in the source; they are usually repeats but may differ in a detail not shown here. Equal entries are not always repeated.

Target: GSK3β(h) (Homo sapiens, UniProt P49841)
Assay: Glycogen Synthase Kinase-3 Assay
Format: biochemical
Details: assay run three times for each compound; each run's value listed
Description: Compounds were tested for the ability to inhibit GSK-3β protein. Briefly, in a final reaction volume of 25 μL, GSK-3β (h) (5-10 mU) was incubated with 8 mM MOPS pH 7.0, 0.2 mM EDTA, 20 μM […](p)EDEEE (phospho GS2 peptide), 10 mM Mg Acetate and [γ-^33P-ATP] (specific activity approx. 500 cpm/pmol, concentration as required). The reaction was initiated by the addition of the MgATP mix. After incubation for 40 minutes at room temperature, the reaction was stopped by the addition of 5 μL of a 3% phosphoric acid solution. 10 μL of the reaction was then spotted onto a P30 filtermat and washed three times for 5 minutes in 50 mM phosphoric acid and once in methanol prior to drying and scintillation counting.
The GSK-3β assay was run three times for each compound.

Chain of GSK3β(h) (P49841 whole entry): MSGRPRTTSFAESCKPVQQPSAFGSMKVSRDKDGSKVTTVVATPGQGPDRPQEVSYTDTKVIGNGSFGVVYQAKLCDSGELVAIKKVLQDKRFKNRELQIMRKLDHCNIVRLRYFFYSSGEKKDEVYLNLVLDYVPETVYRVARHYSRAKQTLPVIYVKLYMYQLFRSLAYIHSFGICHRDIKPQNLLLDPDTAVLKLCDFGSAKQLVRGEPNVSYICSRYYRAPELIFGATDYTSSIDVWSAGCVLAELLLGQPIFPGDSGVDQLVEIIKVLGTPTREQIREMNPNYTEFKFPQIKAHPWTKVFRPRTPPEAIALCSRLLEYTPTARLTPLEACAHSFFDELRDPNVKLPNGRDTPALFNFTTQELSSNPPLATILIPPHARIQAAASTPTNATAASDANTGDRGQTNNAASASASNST

IC50 | SMILES
0.024 µM and 0.0193 µM and 0.0298 µM | O=C1NC(=O)C2=C1c1cn(c3ccccc13)CCCCc1ccc(c(N3CCCC3)n1)CCCCn1cc2c2ccccc21 [Cpd 5, 33-pyrrolidin-1-yl-6,16,26,32-tetraazaheptacyclo[29.2.2.1^6,13.1^19,26.0^7,12.0^14,18.0^20,25]heptatriaconta-1(33),7,9,11,13(37),14(18),19(36),20,22,24,31,34-dodecaene-15,17-dione]
0.0055 µM and 0.0529 µM and 0.0521 µM | CN(C)c1nc2ccc1CCCn1cc(c3ccccc31)C1=C(C(=O)NC1=O)c1cn(c3ccccc13)CCC2 [Cpd 3, 31-(dimethylamino)-5,15,25,30-tetraazaheptacyclo[27.2.2.1^5,12.1^18,25.0^6,11.0^13,17.0^19,24]pentatriaconta-1(31),6,8,10,12(35),13(17),18(34),19,21,23,29,32-dodecaene-14,16-dione]
0.01 µM and 0.021 µM and 0.0535 µM | Cc1ccc(-c2cc3cc(n2)CCCn2cc(c4ccccc42)C2=C(C(=O)NC2=O)c2cn(c4ccccc24)CCC3)cc1 [Cpd 4, 20-(4-methylphenyl)-4,14,19,26-tetraazaheptacyclo[24.6.1.1^7,14.1^18,22.0^2,6.0^8,13.0^27,32]pentatriaconta-1(33),2(6),7(35),8,10,12,18(34),19,21,27,29,31-dodecaene-3,5-dione]
